ChEMBL document CHEMBL3351924, “Detailed analysis and follow-up studies of a high-throughput screening for indoleamine 2,3-dioxygenase 1 (IDO1) inhibitors” (Eur J Med Chem, 2014)
Values after ≈ are worked out from the molar mass of the structure shown. One block for each compound: values may come before it.

Experiments:
[1] = target: T1, Indoleamine 2,3-dioxygenase 1 (Homo sapiens, UniProt P14902); test: Inhibition of IDO1 (unknown origin) using L-tryptophan substrate incubated for 60 mins in presence of 0.01% Triton-X by HPLC
[2] = Solubility of the compound in pH 6.5 phosphate buffer containing 5% DMSO; details: phosphate buffer containing 5% DMSO
[3] = target: Indoleamine 2,3-dioxygenase 1 (Mus musculus, UniProt P28776); test: Inhibition of mouse IDO1 expressed in mouse P815B cells using L-tryptophan substrate incubated for 18 hrs by HPLC based cellular assay; type: cell-based
[4] = target: Tryptophan 2,3-dioxygenase (Mus musculus, UniProt P48776); test: Inhibition of mouse TDO expressed in mouse P815B cells using L-tryptophan substrate incubated for 24 hrs by HPLC based cellular assay; type: cell-based; details: p815b
[5] = Cytotoxicity against mouse P815B cells after 24 hrs by MTS/PMS assay; details: P815B cells
[6] = target: T1, Indoleamine 2,3-dioxygenase 1; test: Inhibition of IDO1 (unknown origin) using L-tryptophan substrate incubated for 60 mins by HPLC
[7] = target: T1, Indoleamine 2,3-dioxygenase 1; test: Inhibition of IDO1 (unknown origin) using L-tryptophan substrate incubated for 60 mins in presence of 5 mM GSH by HPLC

Tryptophan 2,3-dioxygenase, sequence (P48776 whole entry): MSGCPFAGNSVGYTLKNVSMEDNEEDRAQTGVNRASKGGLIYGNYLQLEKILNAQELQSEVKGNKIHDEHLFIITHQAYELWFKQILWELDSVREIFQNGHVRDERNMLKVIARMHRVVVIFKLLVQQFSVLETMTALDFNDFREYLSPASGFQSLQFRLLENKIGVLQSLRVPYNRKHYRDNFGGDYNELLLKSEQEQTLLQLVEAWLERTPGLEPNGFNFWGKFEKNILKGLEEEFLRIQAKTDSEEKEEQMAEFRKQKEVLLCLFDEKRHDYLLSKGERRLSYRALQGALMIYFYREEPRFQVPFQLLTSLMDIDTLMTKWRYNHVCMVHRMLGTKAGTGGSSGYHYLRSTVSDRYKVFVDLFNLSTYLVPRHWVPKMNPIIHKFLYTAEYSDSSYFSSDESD
Indoleamine 2,3-dioxygenase 1 (Mus musculus, UniProt P28776), sequence (P28776 whole entry): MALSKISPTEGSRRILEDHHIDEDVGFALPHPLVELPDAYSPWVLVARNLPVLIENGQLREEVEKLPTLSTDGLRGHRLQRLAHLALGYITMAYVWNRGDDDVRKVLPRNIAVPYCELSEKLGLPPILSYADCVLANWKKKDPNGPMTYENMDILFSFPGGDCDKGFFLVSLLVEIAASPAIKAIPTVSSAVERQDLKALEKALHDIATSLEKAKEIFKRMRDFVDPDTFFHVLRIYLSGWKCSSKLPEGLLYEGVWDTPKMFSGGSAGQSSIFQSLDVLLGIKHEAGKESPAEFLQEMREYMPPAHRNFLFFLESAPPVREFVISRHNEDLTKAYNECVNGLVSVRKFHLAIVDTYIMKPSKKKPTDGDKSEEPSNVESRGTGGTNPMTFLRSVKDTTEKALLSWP
T1 sequence (P14902 whole entry): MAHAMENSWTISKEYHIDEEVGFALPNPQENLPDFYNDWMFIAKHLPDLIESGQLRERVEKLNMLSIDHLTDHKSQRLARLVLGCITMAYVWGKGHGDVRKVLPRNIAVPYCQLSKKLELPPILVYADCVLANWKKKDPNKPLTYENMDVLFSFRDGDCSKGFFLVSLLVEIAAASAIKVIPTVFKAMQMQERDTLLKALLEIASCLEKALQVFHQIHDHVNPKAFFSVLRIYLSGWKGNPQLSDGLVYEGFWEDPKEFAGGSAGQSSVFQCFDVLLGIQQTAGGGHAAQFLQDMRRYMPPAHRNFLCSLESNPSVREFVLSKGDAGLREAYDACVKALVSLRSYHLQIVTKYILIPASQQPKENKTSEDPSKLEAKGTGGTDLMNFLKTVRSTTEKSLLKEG

SMILES: N=C(N)SCc1nc(-c2ccc(Cl)cc2)no1
IC50 ([1]; read-out: IC50): 1.2 µM
IC50 ([3]; read-out: IC50): 2.1 µM
IC50 [4]: Not Active
CC50 at 24 h [5]: 10 µM
IC50 ([6]; read-out: IC50): 0.89 µM
solubility [2]: 1000 µM (≈ 269 µg/mL)

SMILES: Nc1n[nH]c2cc(O)[nH]c(=O)c12
IC50 [6]: Not Active
solubility [2]: 1000 µM (≈ 166 µg/mL)

SMILES: c1ccc(-n2ccnc2)cc1
IC50 [1]: Not Active
solubility [2]: > 1000 µM

SMILES: COC(=O)/C(C#N)=C(\C#N)c1ccc(Br)o1
IC50 [7]: 7.1 µM
IC50 ([3]; p815b): Not Active
IC50 [4]: Not Active
CC50 at 24 h [5]: 5 µM
IC50 ([6]; read-out: IC50): 0.71 µM
solubility [2]: 100 µM (≈ 28.1 µg/mL)

SMILES: N#CC(C#N)=C1c2cc(S(N)(=O)=O)cc([N+](=O)[O-])c2-c2c1cc(S(N)(=O)=O)cc2[N+](=O)[O-]
IC50 ([1]; read-out: IC50): 0.96 µM
IC50 [7]: 1.6 µM
IC50 ([3]; p815b): Not Active
IC50 [4]: Not Active
CC50 at 24 h [5]: > 25 µM
IC50 ([6]; read-out: IC50): 1 µM
solubility [2]: 250 µM (≈ 119 µg/mL)

SMILES: COC(=O)/C(C#N)=C1/C(=O)Nc2ccccc21
IC50 [7]: 130 µM
IC50 ([3]; p815b): Not Active
IC50 [4]: Not Active
CC50 at 24 h [5]: > 25 µM
IC50 ([6]; read-out: IC50): 1.8 µM
solubility [2]: 100 µM (≈ 22.8 µg/mL)

SMILES: N#CC(C(=O)Nc1cccc(C(F)(F)F)c1)C(=S)Nc1ccccc1Cl (stereo not given)
IC50 ([1]; read-out: IC50): 6.3 µM
IC50 [7]: 71 µM
IC50 ([3]; p815b): Not Active
IC50 [4]: Not Active
CC50 at 24 h [5]: > 25 µM
IC50 ([6]; read-out: IC50): 7 µM
solubility [2]: 1000 µM (≈ 398 µg/mL)

SMILES: NNC(=O)c1nn(-c2ccccc2)c(=O)c2c(N)scc12
IC50 ([1]; read-out: IC50): 15 µM
IC50 ([3]; p815b): Not Active
IC50 [4]: Not Active
CC50 at 24 h [5]: > 25 µM
IC50 ([6]; read-out: IC50): 13 µM
solubility [2]: 1000 µM (≈ 301 µg/mL)

SMILES: CC1=C(C#N)C(c2ccc(-c3ccc(Cl)cc3[N+](=O)[O-])o2)C(C#N)=C(C)N1
IC50 [6]: Not Active
solubility [2]: 50 µM (≈ 19 µg/mL)

SMILES: CNC(=S)N/N=C/c1ccc(OC)c(OC)c1
solubility [2]: 1000 µM (≈ 253 µg/mL)

SMILES: CC(C)(C)S(=O)(=O)/C(C#N)=C/c1ccsc1
solubility [2]: 1000 µM (≈ 255 µg/mL)

SMILES: N#C/C(=C\c1c[nH]cn1)S(=O)(=O)c1ccc(Cl)cc1
solubility [2]: 1000 µM (≈ 294 µg/mL)

SMILES: Cn1cc(Cl)c(/C=C(\C#N)S(=O)(=O)C(C)(C)C)n1
solubility [2]: 1000 µM (≈ 288 µg/mL)

SMILES: N#C/C(=C\c1c[nH]cn1)S(=O)(=O)c1cccs1
solubility [2]: 1000 µM (≈ 265 µg/mL)

SMILES: Cc1cc(C)n2[nH]c(=S)nc2n1
solubility [2]: 1000 µM (≈ 180 µg/mL)

Results, then the compound that gave them:

IC50 [1]: Not Active
solubility [2]: > 1000 µM
SMILES: OC(Cn1ccnc1)c1ccccc1 (stereo not given)

IC50 ([1]; read-out: IC50): 130 µM
solubility [2]: > 1000 µM
SMILES: OC(Cn1ccnc1)c1ccc(Cl)cc1Cl (stereo not given)

IC50 [1]: Not Active
solubility [2]: > 1000 µM
SMILES: OC(Cn1cncn1)c1ccc(Cl)cc1Cl (stereo not given)

IC50 [1]: Not Active
solubility [2]: > 1000 µM
SMILES: OC(Cn1ccnc1)c1ccc(Cl)cc1 (stereo not given)

solubility [2]: 250 µM (≈ 87.2 µg/mL)
SMILES: Cc1cc(N/C=C(\C#N)S(=O)(=O)c2ccccc2Cl)nc(C)n1

IC50 [6]: Not Active
solubility [2]: 1000 µM (≈ 205 µg/mL)
SMILES: NC(=S)N/N=C1\CCc2ccccc21

solubility [2]: 1000 µM (≈ 225 µg/mL)
SMILES: CN(C)/C=N/C(=S)Nc1cccc(F)c1

solubility [2]: 25 µM (≈ 8.66 µg/mL)
SMILES: CCN(CC)c1ccc(NC(=O)C2CCCCC2)c(N(CC)CC)n1

IC50 [6]: Not Active
solubility [2]: 50 µM (≈ 17.1 µg/mL)
SMILES: NC(=O)N/N=C/c1ccc(-c2ccc(C(F)(F)F)cc2[N+](=O)[O-])o1

solubility [2]: 10 µM (≈ 3.06 µg/mL)
SMILES: Oc1c(Cl)cc(Cl)cc1/C=N/c1ccc2[nH]cnc2c1

solubility [2]: 250 µM (≈ 57.9 µg/mL)
SMILES: NC(=S)N/N=C/c1c(F)cccc1Cl

solubility [2]: 1000 µM (≈ 279 µg/mL)
SMILES: Cc1cc(NS(=O)(=O)c2ccc(Cl)s2)no1

solubility [2]: 50 µM (≈ 17.5 µg/mL)
SMILES: Cc1nn(-c2ccccc2)nc1CNC(=O)c1ccc2nsnc2c1

solubility [2]: 50 µM (≈ 18.2 µg/mL)
SMILES: Oc1nc(=S)ccn1-c1nc(-c2ccccc2)sc1-c1ccccc1

solubility [2]: 100 µM (≈ 30.3 µg/mL)
SMILES: COc1ccc(-c2n[nH]cc2/C=C(/C#N)S(C)(=O)=O)cc1

solubility [2]: 1000 µM (≈ 225 µg/mL)
SMILES: COCCCNC(=O)N/N=C/c1ccco1

solubility [2]: 250 µM (≈ 68.8 µg/mL)
SMILES: COc1ccccc1NC(=S)N/N=C/c1ccco1

IC50 [6]: Not Active
solubility [2]: 10 µM (≈ 3.17 µg/mL)
SMILES: Oc1ccc(Br)cc1/C=N/c1ccc2[nH]nnc2c1

solubility [2]: 100 µM (≈ 21.1 µg/mL)
SMILES: CSC1=NNC(c2ccccn2)S1 (stereo not given)

IC50 [6]: Not Active
solubility [2]: 100 µM (≈ 21.2 µg/mL)
SMILES: S=c1[nH]cc(-c2ccc(Cl)cc2)o1

solubility [2]: 100 µM (≈ 31.1 µg/mL)
SMILES: Clc1ccc(Sc2nc(-c3cccs3)ns2)cc1

solubility [2]: 1000 µM (≈ 226 µg/mL)
SMILES: O=C(CC(=O)c1cccnc1)c1cccnc1
